In patent US20240287138A1, “CYCLIC PEPTIDES FOR INHIBITING TNF RECEPTOR 1 ACTIVITY” (Merck Sharp & Dohme LLC, priority 2023, published 2024):
Numbered stars: 1 amine (or outer) side, 2 acyl side, 3 side chain; on linkers, the order of the positions; unused ones are H or OH. Bridge positions count the residues as written; N and C are the ends. Square brackets hold non-standard residues; d marks the D form. Peptide text beside a SMILES is read from it. * marks the point of attachment. Trp(7-aza,1-CH2COOH) = N[C@@H](Cc1cn(CC(=O)O)c2ncccc12)C(=O)O; Trp(βS-Me,7-OMe) = COc1cccc2c([C@H](C)[C@H](N)C(=O)O)c[nH]c12; Phe(4-CH2SO3H) = N[C@@H](Cc1ccc(CS(=O)(=O)O)cc1)C(=O)O; Ala(indazol-1-yl) = N[C@@H](Cn1ncc2ccccc21)C(=O)O; Trp(7-CN) = N#Cc1cccc2c(C[C@H](N)C(=O)O)c[nH]c12; Trp(7-Cl) = N[C@@H](Cc1c[nH]c2c(Cl)cccc12)C(=O)O; X20 = O=C1NCc2ccc(C[C@H](N[*:1])C(=O)[*:2])cc21; Phe(4-CONH2) = NC(=O)c1ccc(C[C@H](N)C(=O)O)cc1; Phe(4-COOH) = N[C@@H](Cc1ccc(C(=O)O)cc1)C(=O)O; 4Pal(3S-Me) = C[C@@H](c1ccncc1)[C@H](N)C(=O)O; Trp(7-aza) = N[C@@H](Cc1c[nH]c2ncccc12)C(=O)O; X48 = O=C([C@H](CC12CC(O)(C1)C2)N[*:1])[*:2]; Pip(5R-OH) = O=C(O)[C@@H]1CC[C@@H](O)CN1; Tyr(2-F) = N[C@@H](Cc1ccc(O)cc1F)C(=O)O; X1 = O=C([C@@H]1CC[C@H](N[*:1])C1)[*:2]; X45 = O=C([C@H]1CC2(CC2)CN1[*:1])[*:2]; Val(3-OH) = CC(C)(O)[C@H](N)C(=O)O; Pip(4-aza) = O=C(O)[C@@H]1CNCCN1; 4Pal = N[C@@H](Cc1ccncc1)C(=O)O; NMeE = CN[C@@H](CCC(=O)O)C(=O)O; dHyp = O=C(O)[C@H]1C[C@H](O)CN1; Ahp(2) = CCCCC[C@H](N)C(=O)O; NMeS = CN[C@@H](CO)C(=O)O; hSer = N[C@@H](CCO)C(=O)O; αMeS = C[C@](N)(CO)C(=O)O; Carboxymethyl = O=C(O)C*; Nle = CCCC[C@H](N)C(=O)O; X37 = c1cncc(N*)c1; CF3 = FC(F)(F)*; Sar = CNCC(=O)O

Columns and labels:
[1] = target: T1, human soluble TNFR1 (sTNFR1) (Homo sapiens, UniProt P19438); test: Human sTNFR1-peptide displacement assay (LanthaScreen Eu TR-FRET binding assay)
T1 construct: made in house; host or cells: Sf21 (baculovirus)
T1 sequence (P19438 with tags, fused parts or gaps): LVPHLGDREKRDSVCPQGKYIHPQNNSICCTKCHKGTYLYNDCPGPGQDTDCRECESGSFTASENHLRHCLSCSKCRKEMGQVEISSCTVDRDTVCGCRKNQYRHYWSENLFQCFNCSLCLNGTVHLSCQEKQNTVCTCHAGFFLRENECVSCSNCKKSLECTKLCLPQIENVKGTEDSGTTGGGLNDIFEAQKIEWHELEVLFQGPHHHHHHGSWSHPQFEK
Outline: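 Readout is the 665/615 nm TR-FRET ratio (Eu anti-His donor, streptavidin-Alexa647 acceptor), normalized to DMSO and saturating displacer, fit by Morrison-based five-parameter logistic for Kd^app. His-tagged sTNFR1 (1-211) prebound to 100 nM biotinylated peptide SEQ ID NO.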

[2] = target: T2, TNFα-induced NF-κB signal transduction pathway (TNFR1 signaling) in THP-1 cells (Homo sapiens, UniProt P19438); test: THP-1 Lucia NF-κB reporter cell assay, inhibition of TNFα-induced NF-κB signaling; assay type: cell-based; conditions: THP-1 NF-κB Lucia reporter cells, 10 ng/mL TNFα, 16-18 h, secreted luciferase; read-out: THP-1 IC50
T2 sequence (P19438 30-455): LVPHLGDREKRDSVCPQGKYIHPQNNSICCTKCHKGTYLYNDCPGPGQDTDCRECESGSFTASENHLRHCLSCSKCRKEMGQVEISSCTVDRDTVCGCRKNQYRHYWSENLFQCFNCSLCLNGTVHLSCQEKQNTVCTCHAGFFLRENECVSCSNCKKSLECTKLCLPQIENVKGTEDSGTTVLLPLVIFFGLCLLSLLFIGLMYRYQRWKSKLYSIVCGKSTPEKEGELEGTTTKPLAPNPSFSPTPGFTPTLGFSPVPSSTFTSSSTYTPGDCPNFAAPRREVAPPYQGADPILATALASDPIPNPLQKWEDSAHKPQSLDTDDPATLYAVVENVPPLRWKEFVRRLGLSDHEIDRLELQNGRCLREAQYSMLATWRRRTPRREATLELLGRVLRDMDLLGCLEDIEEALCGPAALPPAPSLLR
Outline: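 Inhibition of TNFR1-driven NF-κB activation was measured as luminescence of secreted reporter luciferase following overnight (16-18 h) stimulation with 10 ng/mL TNFα.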

Compound | Kd [1] [nM] | IC50 [2] [nM] | IC50 [1] [nM]
CCCC[C@@H]1NC(=O)CSC[C@@H](C(N)=O)NC(=O)[C@H]([C@@H](C)c2c[nH]c3c(OC)cccc23)NC(=O)CN(C)C(=O)[C@H](Cc2ccc(O)cc2)NC(=O)[C@H](Cc2ccc(C(=O)O)cc2)NC(=O)[C@](C)(CO)NC(=O)[C@H](Cc2c[nH]c3c(Cl)cccc23)NC(=O)[C@H](Cc2ccncc2)NC(=O)[C@H](CC(N)=O)NC(=O)[C@H](CCC(=O)O)N(C)C(=O)[C@H](Cn2ncc3ccccc32)NC(=O)[C@H]([C@@H](C)O)NC(=O)[C@H](CC23CC(O)(C2)C3)NC1=O [SEQ ID NO. 152] ({CH2CO}-[Nle][X48]T[Ala(indazol-1-yl)][NMeE]N[4Pal][Trp(7-Cl)][αMeS][Phe(4-COOH)]Y[Sar][Trp(βS-Me,7-OMe)]C-NH2; thioether N-14) | 1.19 | 5.3 | 
CCCCC[C@@H]1NC(=O)[C@@H]2CC[C@@H](C2)NC(=O)[C@H]([C@@H](C)c2c[nH]c3c(OC)cccc23)NC(=O)CN(C)C(=O)[C@H](Cc2ccc(C(N)=O)cc2)NC(=O)[C@H](Cc2ccc(C(N)=O)cc2)NC(=O)[C@](C)(CO)NC(=O)[C@H](Cc2c[nH]c3c(C#N)cccc23)NC(=O)[C@H](Cc2ccc(C(=O)O)cc2)NC(=O)[C@H](CC(N)=O)NC(=O)[C@H]2C[C@H](O)CN2C(=O)[C@H](Cc2c[nH]c3ccccc23)NC(=O)[C@H](CCOC)NC(=O)[C@H]([C@@H](C)c2ccncc2)NC1=O [SEQ ID NO. 154] (cyclo([Ahp(2)][4Pal(3S-Me)][hSer](Me)W[dHyp]N[Phe(4-COOH)][Trp(7-CN)][αMeS][Phe(4-CONH2)][Phe(4-CONH2)][Sar][Trp(βS-Me,7-OMe)][X1])) | 0.17 | 1.2 | 
CCCC[C@@H]1NC(=O)[C@@H]2CC[C@@H](C2)NC(=O)[C@H]([C@@H](C)c2c[nH]c3c(OC)cccc23)NC(=O)CN(C)C(=O)[C@H](Cc2ccc(C(N)=O)cc2)NC(=O)[C@H](Cc2ccc(C(N)=O)cc2)NC(=O)[C@](C)(CO)NC(=O)[C@H](Cc2c[nH]c3c(C#N)cccc23)NC(=O)[C@H](Cc2ccc3c(c2)C(=O)NC3)NC(=O)[C@H](CC(N)=O)NC(=O)[C@H]2C[C@H](OCC(=O)O)CN2C(=O)[C@H](Cc2cn(CC(=O)O)c3ncccc23)NC(=O)[C@@H]2CC[C@@H](O)CN2C(=O)[C@H](Cc2ccncc2)NC1=O [SEQ ID NO. 156] (cyclo([4Pal][Pip(5R-OH)][Trp(7-aza,1-CH2COOH)][dHyp](Carboxymethyl)N[X20][Trp(7-CN)][αMeS][Phe(4-CONH2)][Phe(4-CONH2)][Sar][Trp(βS-Me,7-OMe)][X1][Nle])) | 0.12 | 0.8 | 
CCCC[C@@H]1NC(=O)CSC[C@@H](C(N)=O)NC(=O)[C@H]([C@@H](C)c2c[nH]c3c(OC)cccc23)NC(=O)CN(C)C(=O)[C@H](Cc2ccc(OC(F)(F)F)cc2)NC(=O)[C@H](Cc2ccc(C(=O)O)cc2)NC(=O)[C@](C)(CO)NC(=O)[C@H](Cc2c[nH]c3c(Cl)cccc23)NC(=O)[C@H](Cc2ccncc2)NC(=O)[C@H](CC(N)=O)NC(=O)[C@H](CCC(=O)O)N(C)C(=O)[C@H](Cc2c[nH]c3ncccc23)NC(=O)[C@@H]2CNCCN2C(=O)[C@H](Cc2ccncc2)NC1=O [SEQ ID NO. 158] ({CH2CO}-[Nle][4Pal][Pip(4-aza)][Trp(7-aza)][NMeE]N[4Pal][Trp(7-Cl)][αMeS][Phe(4-COOH)]Y(CF3)[Sar][Trp(βS-Me,7-OMe)]C-NH2; thioether N-14) |  | 5.3 | 1.79
CCCC[C@@H]1NC(=O)CSC[C@@H](C(N)=O)NC(=O)[C@H]([C@@H](C)c2c[nH]c3c(OC)cccc23)NC(=O)CN(C)C(=O)[C@H](Cc2ccc(OC)cc2)NC(=O)[C@H](Cc2ccc(C(=O)O)cc2)NC(=O)[C@](C)(CO)NC(=O)[C@H](Cc2c[nH]c3c(Cl)cccc23)NC(=O)[C@H](Cc2ccc(C(N)=O)cc2)NC(=O)[C@H](CC(N)=O)NC(=O)[C@H](CCC(=O)O)N(C)C(=O)[C@H](Cc2c[nH]c3ccccc23)NC(=O)[C@@H]2CNCCN2C(=O)[C@H](Cc2ccncc2)NC1=O [SEQ ID NO. 162] ({CH2CO}-[Nle][4Pal][Pip(4-aza)]W[NMeE]N[Phe(4-CONH2)][Trp(7-Cl)][αMeS][Phe(4-COOH)]Y(Me)[Sar][Trp(βS-Me,7-OMe)]C-NH2; thioether N-14) | 0.56 | 0.1 | 0.69
CCCC[C@@H]1NC(=O)CSC[C@@H](C(N)=O)NC(=O)[C@H]([C@@H](C)c2c[nH]c3c(OC)cccc23)NC(=O)CN(C)C(=O)[C@H](Cc2ccc(O)cc2)NC(=O)[C@H](Cc2ccc(C(=O)O)cc2)NC(=O)[C@](C)(CO)NC(=O)[C@H](Cc2c[nH]c3c(Cl)cccc23)NC(=O)[C@H](Cc2ccncc2)NC(=O)[C@H](CC(N)=O)NC(=O)[C@H](CCC(=O)O)N(C)C(=O)[C@H](Cc2c[nH]c3ncccc23)NC(=O)[C@H](C(C)(C)O)NC(=O)[C@H](Cc2ccc(C(N)=O)cc2)NC1=O [SEQ ID NO. 164] ({CH2CO}-[Nle][Phe(4-CONH2)][Val(3-OH)][Trp(7-aza)][NMeE]N[4Pal][Trp(7-Cl)][αMeS][Phe(4-COOH)]Y[Sar][Trp(βS-Me,7-OMe)]C-NH2; thioether N-14) | 0.5 | 3.6 | 0.6
COc1cccc2c([C@H](C)[C@@H]3NC(=O)CN(C)C(=O)[C@H](Cc4ccc(O)cc4)NC(=O)[C@H](Cc4ccc(C(=O)O)cc4)NC(=O)[C@](C)(CO)NC(=O)[C@H](Cc4c[nH]c5c(Cl)cccc45)NC(=O)[C@H](Cc4ccncc4)NC(=O)[C@H](CC(N)=O)NC(=O)[C@H](CCC(=O)O)N(C)C(=O)[C@H](Cc4c[nH]c5ccccc45)NC(=O)[C@H](CO)N(C)C(=O)[C@H](Cc4ccncc4)NC(=O)[C@H](CCC(=O)Nc4cccnc4)NC(=O)[C@@H]4CC[C@@H](C4)NC3=O)c[nH]c12 [SEQ ID NO. 166] (cyclo([4Pal][NMeS]W[NMeE]N[4Pal][Trp(7-Cl)][αMeS][Phe(4-COOH)]Y[Sar][Trp(βS-Me,7-OMe)][X1]E(X37))) | 0.44 | 2.7 | 0.5
CCCC[C@@H]1NC(=O)CSC[C@@H](C(N)=O)NC(=O)[C@H]([C@@H](C)c2c[nH]c3c(OC)cccc23)NC(=O)CN(C)C(=O)[C@H](Cc2ccc(O)cc2)NC(=O)[C@H](Cc2ccc(C(=O)O)cc2)NC(=O)[C@](C)(CO)NC(=O)[C@H](Cc2c[nH]c3c(Cl)cccc23)NC(=O)[C@H](Cc2ccncc2)NC(=O)[C@H](CC(N)=O)NC(=O)[C@H]2CC3(CC3)CN2C(=O)[C@H](Cc2c[nH]c3ccccc23)NC(=O)[C@@H]2CNCCN2C(=O)[C@H](Cc2ccncc2)NC1=O [SEQ ID NO. 167] ({CH2CO}-[Nle][4Pal][Pip(4-aza)]W[X45]N[4Pal][Trp(7-Cl)][αMeS][Phe(4-COOH)]Y[Sar][Trp(βS-Me,7-OMe)]C-NH2; thioether N-14) | 0.48 | 2.6 | 
CCCC[C@@H]1NC(=O)[C@@H]2CC[C@@H](C2)NC(=O)[C@H]([C@@H](C)c2c[nH]c3c(OC)cccc23)NC(=O)CN(C)C(=O)[C@H](Cc2ccc(O)cc2)NC(=O)[C@H](Cc2ccc(C(=O)O)cc2)NC(=O)[C@](C)(CO)NC(=O)[C@H](Cc2c[nH]c3c(Cl)cccc23)NC(=O)[C@H](Cc2ccc(CS(=O)(=O)O)cc2)NC(=O)[C@H](CC(N)=O)NC(=O)[C@H](CCC(=O)O)N(C)C(=O)[C@H](Cc2c[nH]c3ccccc23)NC(=O)[C@@H]2CNCCN2C(=O)[C@H](Cc2ccncc2)NC1=O [SEQ ID NO. 171] (cyclo([4Pal][Pip(4-aza)]W[NMeE]N[Phe(4-CH2SO3H)][Trp(7-Cl)][αMeS][Phe(4-COOH)]Y[Sar][Trp(βS-Me,7-OMe)][X1][Nle])) | 0.19 | 0.9 | 
CCCC[C@@H]1NC(=O)[C@@H]2CC[C@@H](C2)NC(=O)[C@H]([C@@H](C)c2c[nH]c3c(OC)cccc23)NC(=O)CN(C)C(=O)[C@H](Cc2ccc(O)cc2F)NC(=O)[C@H](Cc2ccc(C(=O)O)cc2)NC(=O)[C@](C)(CO)NC(=O)[C@H](Cc2c[nH]c3c(Cl)cccc23)NC(=O)[C@H](Cc2ccncc2)NC(=O)[C@H](CC(N)=O)NC(=O)[C@H](CCC(=O)O)N(C)C(=O)[C@H](Cc2c[nH]c3ccccc23)NC(=O)[C@@H]2CNCCN2C(=O)[C@H](Cc2ccncc2)NC1=O [SEQ ID NO. 175] (cyclo([4Pal][Trp(7-Cl)][αMeS][Phe(4-COOH)][Tyr(2-F)][Sar][Trp(βS-Me,7-OMe)][X1][Nle][4Pal][Pip(4-aza)]W[NMeE]N)) | 0.22 | 0.9 | 
